Measurements from patent US20070202515A1, “Promac signature application” (PATHOLOGICA, LLC., priority 2005, published 2007).

What was measured:
[1] = system: subcutaneous T cell lymphoma; assay: Phase I trial of CG-47: clinical response of lymphoma; format: in vivo, human
From the text: As part of the clinical development of CG-47, Pathologica performed analysis on blood samples from a subset of patients currently enrolled in a Phase I trial of the safety of the investigational polyamine CG-47. The trial recruited patients who have failed conventional therapy for various lymphomas. The patients received increasing amounts of CG47 for 5 days every three weeks by infusion. The trial was a dose escalation trial in which the first 3 patients received the lowest dose, the next three a higher dose etc. One patient, a person with subcutaneous T cell lymphoma, received 4 doses of 50 mg/m^2 of CG-47 over a 12 week period. […] Relapse of the lymphoma then occurred and a final sample was obtained. Levels of CD14-16++macrophages and the LC5-CI values obtained from the baseline and various subsequent samples are presented in FIG. 10. At presentation the patient had elevated CD14-16% s (˜50%) and a strongly positive LC5-CI score (6.2). After the first cycle of CG-47 the patient entered a clinical remission of their cancer that lasted for the […] of CG-47. During their clinical remission both the CD14-16++ levels and the LC5-CI scores normalized. After the 4th cycle of CG-47 the patient experienced a relapse in their cancer and in the post relapse samples CD14-16++ levels were again elevated (50%) and their LC5-CI value had reverted to a positive score (12.9). […]

CD14-16++macrophages = assay: Levels of CD14-16++ macrophages in patient blood by flow cytometry; format: in vivo, human; conditions: same patient
From the text: FIG. 10: LC5-CI and Signature values in cutaneous T-cell lymphoma patient—the percent of CD14 cells also staining with antibodies to CD16 by flow cytometry (filled triangles) is plotted (left y axis) along with the LC5-CI (open triangles) determined for the same samples (right y axis). The samples include the baseline sample obtained prior to the administration of the first cycle of CG-47 (baseline, x axis), the samples obtained prior to the patient receiving the 2nd, 3rd, and 4th cycle of CG-47 (cy2, cy3, and cy4, respectively) and the final sample obtained when the patient experienced a relapse (ReLps).
As part of the clinical development of CG-47, Pathologica performed analysis on blood samples from a subset of patients currently enrolled in a Phase I trial of the safety of the investigational polyamine CG-47. The trial recruited patients who have failed conventional therapy for various lymphomas. The patients received increasing amounts of CG47 for 5 days every three weeks by infusion. The trial was a dose escalation trial in which the first 3 patients received the lowest dose, the next three a higher dose etc. One patient, a person with subcutaneous T cell lymphoma, received 4 doses of 50 mg/m^2 of CG-47 over a 12 week period. […] Relapse of the lymphoma then occurred and a final sample was obtained. […]

[2] = system: G1P3, GPR43, IFIT2, ORM1, TNFSF10; assay: LC5-CI quantitative RT-PCR classification index on PBMCs; format: in vivo, human; conditions: same patient
From the text: Aliquots of the RNA preparations were then RT-PCR amplified using quantitative real time methods employing a Light-Cycler^36. The signals obtained were normalized against the signal obtained with primers for β-actin according to the formula Ctactin−Ctgene=NSig where Ct=the threshold cycle for the indicated gene and NSig=the normalized signal.
Therefore, we constructed a “weighted voting” scheme using the methods described by Golub and co-workers^37 for 10 of the most promising primer sets. ALS and control patients were divided into training and test sets and the actin normalized signal for each sample with each primer set was determined as described above. Then the voting weights (modified Rs) were calculated using the test samples according to the formula Mod R=(Mean ALS−Mean CON)/(StDev ALS+StDev CON) calculated using 13 ALS samples & 11 controls.
Next the inflection point or the mid point between the ALS and control samples is calculated according to MID=(MeanALS+MeanCON)/2
Then the signal for the individual primer (ICV) is calculated according to ICV=Mod R(Mean NSig−Mid)
The predictive power of the various primers was then evaluated using the test set of samples. […]

cancer = conditions: response not universal; cited from earlier work
[3] = ALS patients; cited from earlier work

## CCNCCCNC/C=C\CNCCCNCC.Cl.Cl.Cl.Cl [CG-47]
[1]; began after administration of the first dose, 50 mg/m^2, same patient
  duration of remission: approximately 10 weeks
[1]; one patient, 4 doses of 50 mg/m^2 over a 12 week period by infusion
  clinical response of lymphoma: very significant remission
CD14-16++macrophages; relapse after the 4th cycle
  CD14-16++ levels in post relapse samples: 50%
CD14-16++macrophages; at presentation elevated (~50%)
  CD14-16++ levels during clinical remission: normalized
[2]; relapse after the 4th cycle
  LC5-CI value in post relapse samples: 12.9
[2]; at presentation strongly positive (6.2)
  LC5-CI scores during clinical remission: normalized

## C/C(=N\N=C(N)N)c1cc(NC(=O)CCCCCCCCC(=O)Nc2cc(/C(C)=N/N=C(N)N)cc(/C(C)=N/N=C(N)N)c2)cc(/C(C)=N/N=C(N)N)c1.Cl.Cl.Cl.Cl [CNI-1493]
cancer
  efficacy against cancer in clinical trials: some level of efficacy against cancer

## CC(C=NNC(=N)N)=NNC(=N)N.Cl.Cl.O [MGBG, Methylglyoxal bis(guanylhydrazone) dihydrochloride hydrate]
cancer
  efficacy against cancer in clinical trials: some level of efficacy against cancer

## Nc1nc2ccc(OC(F)(F)F)cc2s1 [Riluzole]
[3]
  effect on disease progression: only modest slowing of disease progression
